Test in all cases: Bacterial growth minimal inhibitory concentration (broth microdilution, CLSI M7-A7)
Holding throughout (type): cell-based
For orientation: Dilution methods test growth across graded concentrations, often in twofold steps.

For assay [1], the system named is Staphylococcus aureus ATCC29213. The following applies: Staphylococcus aureus, ATCC29213, cation-adjusted Mueller-Hinton Broth, methicillin-sensitive and quinolone-sensitive strain, read-out: MIC for S. aureus ATCC29213. The method, then: (§1) Minimal Inhibitory Concentrations (MICs; mg/L) were determined in cation-adjusted Mueller-Hinton Broth by a microdilution method following the description given in “Methods for Dilution Antimicrobial Susceptibility Tests for Bacteria that Grow Aerobically”, Approved standard, 7th ed., Clinical and Laboratory Standards Institute (CLSI) Document M7-A7, Wayne, Pa., USA (2006).
(§2) All Example compounds were tested against several Gram positive and Gram negative bacteria. […] Staphylococcus aureus A798, Enterococcus faecium A949 and Acinetobacter baumannii T6474 are multiply-resistant strains (in particular quinolone-resistant), while Moraxella catarrhalis A894 is a quinolone-sensitive strain and Staphylococcus aureus ATCC29213 is a methicillin-sensitive and quinolone-sensitive strain.

Assay [2] deals with Moraxella catarrhalis A894. The following applies: Moraxella catarrhalis, A894, cation-adjusted Mueller-Hinton Broth, quinolone-sensitive strain. The method, then: as §1, §2
Assay [3] concerns Acinetobacter baumannii T6474. To be noted: Acinetobacter baumannii, T6474, cation-adjusted Mueller-Hinton Broth, multiply-resistant strain (in particular quinolone-resistant). The procedure: as §1, §2
The test system of assay [4] is Enterococcus faecium A949. The following applies: Enterococcus faecium, A949, cation-adjusted Mueller-Hinton Broth, multiply-resistant strain (in particular quinolone-resistant), read-out: MIC for E. faecium A949. The procedure: as §1, §2
Assay [5] has as its system Staphylococcus aureus A798. To be noted: Staphylococcus aureus, A798, cation-adjusted Mueller-Hinton Broth, multiply-resistant strain (in particular quinolone-resistant), read-out: MIC for S. aureus A798. The method, then:
as §1, §2

Converted amounts (≈) assume the structure as drawn.

The MIC is the least concentration at which growth counts as inhibited. In the case of `N#Cc1cccc(-c2cccc(CNCC[C@@H]3CN(c4ccc5c(c4)NC(=O)CS5)C(=O)O3)c2)c1` [Example 5, 3′-({2-[(R)-2-oxo-3-(3-oxo-3,4-dihydro-2H-benzo[1,4]thiazin-6-yl)-oxazolidin-5-yl]-ethylamino}-methyl)-biphenyl-3-carbonitrile], the MIC is 0.063 µg/mL (≈ 0.13 µM) in assay [1]; ≤ 0.016 µg/mL in assay [2]; 0.125 µg/mL (≈ 0.258 µM) in assay [3]; 1 µg/mL (≈ 2.06 µM) in assay [4]; 0.063 µg/mL (≈ 0.13 µM) in assay [5].

Consider `COc1ccc(-c2cccc(CNCC[C@@H]3CN(c4ccc5c(c4)NC(=O)CS5)C(=O)O3)c2)cc1` [Example 6, 6-((R)-5-{2-[(4′-methoxy-biphenyl-3-ylmethyl)-amino]-ethyl}-2-oxo-oxazolidin-3-yl)-4H-benzo[1,4]thiazin-3-one], for which the MIC in assay [1] worked out at 1 µg/mL (≈ 2.04 µM); in assay [2], 0.063 µg/mL (≈ 0.129 µM); in assay [3] it was 4 µg/mL (≈ 8.17 µM); in assay [4] it was 4 µg/mL (≈ 8.17 µM); in assay [5] it was 1 µg/mL (≈ 2.04 µM).

`COc1cc(-c2cccc(CNCC[C@@H]3CN(c4ccc5c(c4)NC(=O)CS5)C(=O)O3)c2)ccc1O` [Example 7, 6-((R)-5-{2-[(4′-hydroxy-3′-methoxy-biphenyl-3-ylmethyl)-amino]-ethyl}-2-oxo-oxazolidin-3-yl)-4H-benzo[1,4]thiazin-3-one]: the MIC in assay [1] amounted to 0.5 µg/mL (≈ 0.989 µM); in assay [2], 0.063 µg/mL (≈ 0.125 µM); in assay [3], 1 µg/mL (≈ 1.98 µM); in assay [4] it was 4 µg/mL (≈ 7.91 µM); in assay [5], 0.5 µg/mL (≈ 0.989 µM).

In the case of `COc1ccc(C#N)c(-c2cccc(CNCC[C@@H]3CN(c4ccc5c(c4)NC(=O)CS5)C(=O)O3)c2)c1` [Example 8, 5-methoxy-3′-({2-[(R)-2-oxo-3-(3-oxo-3,4-dihydro-2H-benzo[1,4]thiazin-6-yl)-oxazolidin-5-yl]-ethylamino}-methyl)-biphenyl-2-carbonitrile], the MIC in assay [1] is 0.063 µg/mL (≈ 0.122 µM); in assay [2] it was ≤ 0.016 µg/mL; in assay [3], 0.25 µg/mL (≈ 0.486 µM); in assay [4], 1 µg/mL (≈ 1.94 µM); in assay [5], 0.063 µg/mL (≈ 0.122 µM).

For `COc1cc(C#N)cc(-c2cccc(CNCC[C@@H]3CN(c4ccc5c(c4)NC(=O)CS5)C(=O)O3)c2)c1` [Example 9, 5-methoxy-3′-({2-[(R)-2-oxo-3-(3-oxo-3,4-dihydro-2H-benzo[1,4]thiazin-6-yl)-oxazolidin-5-yl]-ethylamino}-methyl)-biphenyl-3-carbonitrile], the MIC in assay [1] was 0.031 µg/mL (≈ 0.0602 µM); in assay [2], ≤ 0.016 µg/mL; in assay [3], 0.25 µg/mL (≈ 0.486 µM); in assay [4], 1 µg/mL (≈ 1.94 µM); in assay [5], 0.031 µg/mL (≈ 0.0602 µM).

For the molecule `COc1cc(O)cc(-c2cccc(CNCC[C@@H]3CN(c4ccc5c(c4)NC(=O)CS5)C(=O)O3)c2)c1` [Example 10, 6-((R)-5-{2-[(3′-hydroxy-5′-methoxy-biphenyl-3-ylmethyl)-amino]-ethyl}-2-oxo-oxazolidin-3-yl)-4H-benzo[1,4]thiazin-3-one], the minimum inhibitory concentration (MIC) in assay [1] is 0.5 µg/mL (≈ 0.989 µM); in assay [2], ≤ 0.016 µg/mL; in assay [3], 0.5 µg/mL (≈ 0.989 µM); in assay [4] it was 8 µg/mL (≈ 15.8 µM); in assay [5], 0.5 µg/mL (≈ 0.989 µM).

Regarding `COc1cccc(-c2cc(CNCC[C@@H]3CN(c4ccc5c(c4)NC(=O)CS5)C(=O)O3)ccc2F)c1` [Example 11, 6-((R)-5-{2-[(6-fluoro-3′-methoxy-biphenyl-3-ylmethyl)-amino]-ethyl}-2-oxo-oxazolidin-3-yl)-4H-benzo[1,4]thiazin-3-one], the MIC in assay [1] turned out to be 1 µg/mL (≈ 1.97 µM); in assay [2] it was 0.125 µg/mL (≈ 0.246 µM); in assay [3], 2 µg/mL (≈ 3.94 µM); in assay [4], 8 µg/mL (≈ 15.8 µM); in assay [5], 1 µg/mL (≈ 1.97 µM).

Turning to `COc1cccc(-c2cccc(CNCC[C@@H]3CN(c4ccc5c(c4)NC(=O)CS5)C(=O)O3)c2F)c1` [Example 12, 6-((R)-5-{2-[(2-fluoro-3′-methoxy-biphenyl-3-ylmethyl)-amino]-ethyl}-2-oxo-oxazolidin-3-yl)-4H-benzo[1,4]thiazin-3-one], the MIC in assay [1] is 0.5 µg/mL (≈ 0.985 µM); in assay [2], 0.063 µg/mL (≈ 0.124 µM); in assay [3] it was 2 µg/mL (≈ 3.94 µM); in assay [4], 2 µg/mL (≈ 3.94 µM); in assay [5], 0.5 µg/mL (≈ 0.985 µM).

For the molecule `COc1cncc(-c2cccc(CNCC[C@@H]3CN(c4ccc5c(c4)NC(=O)CS5)C(=O)O3)c2)c1` [Example 13, 6-((R)-5-{2-[3-(5-methoxy-pyridin-3-yl)-benzylamino]-ethyl}-2-oxo-oxazolidin-3-yl)-4H-benzo[1,4]thiazin-3-one], the MIC in assay [1] is 0.063 µg/mL (≈ 0.128 µM); in assay [2], ≤ 0.016 µg/mL; in assay [3] it was 0.125 µg/mL (≈ 0.255 µM); in assay [4] it was 1 µg/mL (≈ 2.04 µM); in assay [5], 0.063 µg/mL (≈ 0.128 µM).

Consider `COc1ccnc(-c2cccc(CNCC[C@@H]3CN(c4ccc5c(c4)NC(=O)CS5)C(=O)O3)c2)c1` [Example 14, 6-((R)-5-{2-[3-(4-methoxy-pyridin-2-yl)-benzylamino]-ethyl}-2-oxo-oxazolidin-3-yl)-4H-benzo[1,4]thiazin-3-one], for which the MIC in assay [1] was 0.125 µg/mL (≈ 0.255 µM); in assay [2] it was ≤ 0.016 µg/mL; in assay [3], 0.25 µg/mL (≈ 0.51 µM); in assay [4] it was 2 µg/mL (≈ 4.08 µM); in assay [5] it was 0.125 µg/mL (≈ 0.255 µM).

For the molecule `COc1cccc(-c2cccc(CNCC[C@@H]3CN(c4ccc5c(c4)NC(=O)CS5)C(=O)O3)c2)n1` [Example 15, 6-((R)-5-{2-[3-(6-methoxy-pyridin-2-yl)-benzylamino]-ethyl}-2-oxo-oxazolidin-3-yl)-4H-benzo[1,4]thiazin-3-one], the MIC was 0.063 µg/mL (≈ 0.128 µM) in assay [1]; ≤ 0.016 µg/mL in assay [2]; 0.125 µg/mL (≈ 0.255 µM) in assay [3]; 0.5 µg/mL (≈ 1.02 µM) in assay [4]; 0.031 µg/mL (≈ 0.0632 µM) in assay [5].

Take `COc1ccc(-c2cccc(CNCC[C@@H]3CN(c4ccc5c(c4)NC(=O)CS5)C(=O)O3)c2)cn1` [Example 16, 6-((R)-5-{2-[3-(6-methoxy-pyridin-3-yl)-benzylamino]-ethyl}-2-oxo-oxazolidin-3-yl)-4H-benzo[1,4]thiazin-3-one]: the MIC was 0.5 µg/mL (≈ 1.02 µM) in assay [1]; 0.063 µg/mL (≈ 0.128 µM) in assay [2]; 1 µg/mL (≈ 2.04 µM) in assay [3]; 2 µg/mL (≈ 4.08 µM) in assay [4]; 0.5 µg/mL (≈ 1.02 µM) in assay [5].

In the case of `N#Cc1cncc(-c2cccc(CNCC[C@@H]3CN(c4ccc5c(c4)NC(=O)CS5)C(=O)O3)c2)c1` [Example 17, 5-[3-({2-[(R)-2-oxo-3-(3-oxo-3,4-dihydro-2H-benzo[1,4]thiazin-6-yl)-oxazolidin-5-yl]-ethylamino}-methyl)-phenyl]-nicotinonitrile], the MIC in assay [1] was 0.063 µg/mL (≈ 0.13 µM); in assay [2] it was ≤ 0.016 µg/mL; in assay [3], 0.125 µg/mL (≈ 0.257 µM); in assay [4] it was 1 µg/mL (≈ 2.06 µM); in assay [5], 0.125 µg/mL (≈ 0.257 µM).

As for `N#Cc1cccc(-c2cccc(CNCC[C@@H]3CN(c4ccc5c(c4)NC(=O)CS5)C(=O)O3)c2)n1` [Example 18, 6-[3-({2-[(R)-2-oxo-3-(3-oxo-3,4-dihydro-2H-benzo[1,4]thiazin-6-yl)-oxazolidin-5-yl]-ethylamino}-methyl)-phenyl]-pyridine-2-carbonitrile], the MIC turned out to be 0.25 µg/mL (≈ 0.515 µM) in assay [1]; 0.031 µg/mL (≈ 0.0638 µM) in assay [2]; 0.25 µg/mL (≈ 0.515 µM) in assay [3]; 4 µg/mL (≈ 8.24 µM) in assay [4]; 0.25 µg/mL (≈ 0.515 µM) in assay [5].

In the case of `N#Cc1cnc(O)c(-c2cccc(CNCC[C@@H]3CN(c4ccc5c(c4)NC(=O)CS5)C(=O)O3)c2)c1` [Example 19, 6-hydroxy-5-[3-({2-[(R)-2-oxo-3-(3-oxo-3,4-dihydro-2H-benzo[1,4]thiazin-6-yl)-oxazolidin-5-yl]-ethylamino}-methyl)-phenyl]-nicotinonitrile], the MIC was 1 µg/mL (≈ 1.99 µM) in assay [1]; 0.125 µg/mL (≈ 0.249 µM) in assay [2]; 1 µg/mL (≈ 1.99 µM) in assay [3]; > 8 µg/mL in assay [4]; 1 µg/mL (≈ 1.99 µM) in assay [5].

`COc1cccc(-c2cccc(CNCC[C@@H]3CN(c4ccc5c(c4)NC(=O)CS5)C(=O)O3)n2)c1` [Example 20, 6-[(R)-5-(2-{[6-(3-methoxy-phenyl)-pyridin-2-ylmethyl]-amino}-ethyl)-2-oxo-oxazolidin-3-yl]-4H-benzo[1,4]thiazin-3-one]: the MIC in assay [1] turned out to be 0.125 µg/mL (≈ 0.255 µM); in assay [2] it was 0.063 µg/mL (≈ 0.128 µM); in assay [3] it was 0.5 µg/mL (≈ 1.02 µM); in assay [4] it was 1 µg/mL (≈ 2.04 µM); in assay [5] it was 0.25 µg/mL (≈ 0.51 µM).

For the molecule `COc1cccc(-c2ccnc(CNCC[C@@H]3CN(c4ccc5c(c4)NC(=O)CS5)C(=O)O3)c2)c1` [Example 21, 6-[(R)-5-(2-{[4-(3-methoxy-phenyl)-pyridin-2-ylmethyl]-amino}-ethyl)-2-oxo-oxazolidin-3-yl]-4H-benzo[1,4]thiazin-3-one], the MIC in assay [1] was 0.125 µg/mL (≈ 0.255 µM); in assay [2] it was 0.031 µg/mL (≈ 0.0632 µM); in assay [3] it was 0.25 µg/mL (≈ 0.51 µM); in assay [4], 1 µg/mL (≈ 2.04 µM); in assay [5], 0.125 µg/mL (≈ 0.255 µM).

Turning to `COc1cccc(-c2cccc(CNCC[C@@H]3CN(c4ccc5c(c4)NC(=O)CS5)C(=O)O3)n2)n1` [Example 22, 6-((R)-5-{2-[(6′-methoxy-[2,2]bipyridinyl-6-ylmethyl)-amino]-ethyl}-2-oxo-oxazolidin-3-yl)-4H-benzo[1,4]thiazin-3-one], the MIC in assay [1] came to 0.25 µg/mL (≈ 0.509 µM); in assay [2], 0.063 µg/mL (≈ 0.128 µM); in assay [3] it was 1 µg/mL (≈ 2.03 µM); in assay [4] it was 2 µg/mL (≈ 4.07 µM); in assay [5], 0.5 µg/mL (≈ 1.02 µM).

Source of the values: patent US9527867B2, “Antibacterial biaromatic derivatives” (Actelion Pharmaceuticals Ltd., priority 2013, dated 2016).
